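Protocol summary: plate cells (96-well), add compound at 5 concentrations, incubate 48 h, interpolate endpoints linearly. The concentration for 50% growth inhibition is given as GI50.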 Active and inactive are the calls of the source. Rule as the data show it: active = GI50 up to about 1.1 µM and inactive = higher. Where a SMILES comes first, the peptide text is derived from it. [ ]: non-standard residue; d: D form. The star is where a group is joined. Phe(4-NO2) = N[CH](Cc1ccc([N+](=O)[O-])cc1)C(=O)O; Boc = CC(C)(C)OC(=O)*; OtBu = CC(C)(C)O*

Some test systems named below: SK-OV-3; MDA-N; M14; SK-MEL-2; SK-MEL-5; HCT-15; OVCAR-4; LOX IMVI; HOP-62; NCI-H226; A549; SR; ACHN; KM12; TK-10; DU-145; HT-29; UACC-257; K562; CAKI-1.
Assay in all cases: NCI tumour cell line growth inhibition, 48 h

For `OCCCNCc1ccccn1`, the GI50 with SK-OV-3 was > 100 µM (inactive); in the assay on MDA-N, > 100 µM (inactive); in the assay on M14, > 100 µM (inactive); with SK-MEL-2, > 100 µM (inactive); in the assay with SK-MEL-5 it was > 100 µM (inactive); in the assay with HCT-15, above 100 µM. Besides, the GI50 with OVCAR-4, with LOX IMVI, in the assay on HOP-62, with NCI-H226, in the assay with A549 and in the assay on SR was > 100 µM (inactive) throughout. Further, the GI50 with ACHN, in the assay with KM12, in the assay on TK-10, in the assay on DU-145, in the assay on HT-29 and in the assay on UACC-257 was > 100 µM (inactive) in each case. Also, the GI50 in the assay on K562 and in the assay on CAKI-1 was > 100 µM (inactive) throughout.

As to `COc1ccc(/C=N/N=C(\N)NO)c(O)c1`, the GI50 is 7.38 µM (inactive) in the assay with SK-OV-3; > 10 µM (inactive) in the assay with MDA-N; 5.01 µM (inactive) in the assay on M14; > 10 µM (inactive) in the assay with SK-MEL-2; 3.53 µM (inactive) with SK-MEL-5; 6.24 µM with HCT-15. Besides, the GI50 with OVCAR-4 was > 10 µM (inactive); with LOX IMVI, 3.27 µM (inactive); in the assay on HOP-62 it was > 10 µM (inactive); in the assay on NCI-H226 it was 3.98 µM (inactive); in the assay with A549 it was > 10 µM (inactive); with SR, 2.81 µM (inactive). Moreover, the GI50 in the assay on ACHN is 5.96 µM (inactive); in the assay on KM12, 4.57 µM (inactive); with TK-10 it was > 10 µM (inactive); with DU-145 it was > 10 µM (inactive); with HT-29, 5.66 µM (inactive); with UACC-257, 6.52 µM (inactive). Also, the GI50 with K562 is 4.41 µM (inactive); in the assay with CAKI-1, 4.11 µM (inactive).

As to `COC(=O)C(Cc1ccc([N+](=O)[O-])cc1)NC(=O)C(CC(=O)OC(C)(C)C)NC(=O)OC(C)(C)C` (stereo not given) (Boc-Asp(OtBu)-[Phe(4-NO2)]-OMe; configuration not given here), the GI50 was > 100 µM (inactive) with SK-OV-3; > 100 µM (inactive) in the assay on MDA-N; 29.4 µM (inactive) in the assay with M14; > 100 µM (inactive) with SK-MEL-2; > 100 µM (inactive) in the assay with SK-MEL-5; above 100 µM in the assay with HCT-15. Besides, the GI50 in the assay on OVCAR-4 was 38.4 µM (inactive); with LOX IMVI it was 20.9 µM (inactive); in the assay with HOP-62 it was > 100 µM (inactive); in the assay on NCI-H226 it was > 100 µM (inactive); in the assay with A549 it was > 100 µM (inactive); with SR, 21.4 µM (inactive). The GI50 in the assay on ACHN, in the assay with KM12, in the assay with TK-10, in the assay on DU-145, in the assay on HT-29 and with UACC-257 was > 100 µM (inactive) each time. Also, the GI50 with K562 and in the assay on CAKI-1 was > 100 µM (inactive) each time.

`CCCCCCCCCCCCCC(=O)O[C@H]1CC[C@H](NC(=O)[C@H](OC)[C@H](O)[C@@H](O)[C@H](O)/C=C/C(C)C)C(=O)NC1` [BENGAMIDE A]: the GI50 in the assay with SK-OV-3 is 0.149 µM (active); in the assay with MDA-N, 0.0598 µM (active); in the assay on M14, 0.00601 µM (active); in the assay on SK-MEL-2 it was 0.251 µM (active); with SK-MEL-5, 0.0105 µM (active); with HCT-15 it was 0.299 µM. The GI50 in the assay with OVCAR-4 was 0.0255 µM (active); with LOX IMVI, 0.00512 µM (active); in the assay with HOP-62, 0.235 µM (active); in the assay with NCI-H226 it was 0.145 µM (active); in the assay on A549, 0.00512 µM (active); with SR it was 0.0316 µM (active). Moreover, the GI50 in the assay on ACHN was 0.0592 µM (active); with KM12, 0.00512 µM (active); in the assay on TK-10, 0.0726 µM (active); in the assay on DU-145, 0.731 µM (active); with HT-29, 0.00619 µM (active); in the assay with UACC-257 it was 0.0205 µM (active). The GI50 is 0.00512 µM (active) in the assay with K562 and 0.292 µM (active) in the assay with CAKI-1.

The values are drawn from ChEMBL document CHEMBL1201862, “PubChem BioAssay data set” (2004).
